Reference: patent US20190225651A1, “COMPOUNDS FOR INDUCING TISSUE FORMATION AND USES THEREOF” (HISTIDE AG, priority 2015, published 2019)
Each block holds one substance with its values, some of them ahead of it. Ends that are not written are not given here.

Key:
[1] = Stability of non-covalent peptide coating on apatite ceramics (FITC fluorescence); format: physicochemical; conditions: peptide bound to FITC, coated on apatite ceramics; 3, 7 or 10 days
Protocol: (§1) Non-covalent modifications of the materials were performed in Air Atmosphere at room temperature. The non-covalent coating strategy consisted in using a mixture of inducing peptide (SEQ ID NO: 9; concentration of 1×10^−3M) with an apatite ceramics implant or a mixture of inducing peptide (SEQ ID NO: 10; concentration of 1×10^−3M) with a type-I collagen sponge. The non-covalently coated conventional materials were characterized by using fluorescent peptides (Here SEQ ID NO: 9 and 10 covalently bound to fluorescein isothiocyanate (FITC), FIG. 3). The results shown here in FIG. 3 were obtained from experiments performed with apatite ceramics and a type-I collagen sponge. […] Indeed, after 3, 7 or 10 days, the osteogenic peptides were still coated to the ceramics or the type-I collagen (FIG. 4). The biomaterial surface was characterized by X-ray photoelectron spectroscopy (Table 1). The X-ray photoelectron spectroscopy was performed as described in the Methods section.

[2] = Stability of non-covalent peptide coating on type-I collagen sponge (FITC fluorescence); format: physicochemical; conditions: peptide bound to FITC, mixed with type-I collagen sponge; 3, 7 or 10 days
Protocol: as §1

[3] = system: hMSCs; assay: Alkaline phosphatase activity of hMSCs on peptide-coupled type-I collagen sponge; format: cell-based, human; conditions: 1 week of culture on type-I collagen sponge
Excerpt: We observed an increase in the ALP activity after 1 week of culture on type-I collagen sponge coupled with GFR-binding compounds as defined herein (SEQ ID NO: 19) (FIG. 8b).

[4] = system: osteoblast progenitors; assay: Osteogenic differentiation of osteoblast progenitors on peptide-coated materials (Osteopontin staining, Runx2 Q-PCR); format: cell-based
Protocol: (§2) The cells were first fixed for 20 min with 4% paraformaldehyde/PBS at 4° C. After fixation, the cells were permeabilized in PBS containing 1% Triton X-100 for 15 min. Runx2, Osterix, Stro-1, Vinculin, Phalloidin, Osteopontin, Sox2, Sox9 antibodies were visualized by treating the cells with 1% (v/v) specific monoclonal antibodies for 1 hour at 37° C. Then the samples were incubated with Alexa Fluor® 568 or 647 (F(ab′)2 fragment of IgG(H+L)) during 30 min at room temperature. The cell nuclei were counterstained in 20 ng/mL DAPI for 10 min at room temperature.
(§3) Total RNA was extracted by using the RNeasy total RNA kit (Qiagen®) according to the manufacturer's instructions. Purified total RNA was used as a template in order to make cDNA by a reverse transcription reaction (Gibco BrI®) with random primers (Invitrogen®). The cDNA was then used as a template for a real-time PCR amplification in the presence of SYBR green reagents (Bio-Rad®) by using a thermocycler (iCycler, Biorad®). Data were analyzed with the iCycler IQ™® software and compared by the ΔΔCt method. Briefly, the mean Ct value of the target gene was normalized to its averaged Ct values of the housekeeping gene (HPRT) to give a ΔCt value, which was then normalized to a control sample to obtain a ΔΔCt value. The results were obtained from two series of experiments performed in a triplicate.
The effect of these GFR-binding compounds as defined herein (SEQ ID NO: 19 and 20) on the differentiation of osteoblast progenitors was evaluated. These osteoblast progenitors were seeded onto the apatite ceramics or on type-I collagen sponge that were both coated with osteogenic peptides. […] This was seen from Osteopentin immunofluorescence staining after cell fixation as described in the Methods section (FIG. 7).
An increase in the Runx2 gene expression after 24 hours of culture (FIG. 8a) was observed by using Quantitative Real Time Polymerase Chain Reaction as described in the Methods section.

[5] = system: hMSCs; assay: Chondrocyte differentiation of hMSCs (Sox9, Aggrecan); format: cell-based, human; conditions: 96 hours of culture
Protocol: as §2
Total RNA was extracted by using the RNeasy Mini Kit (Qiagen) and […] RNA was used for cDNA synthesis with AMV kit (Invitrogen®) according to the manufacturer' instructions. Semi-quantitative reverse transcriptase-polymerase chain reaction (RT-PCR) was performed with Taq DNA Polymerase (Invitrogen®) in a thermocycler (Bio-Rad®). The cDNA input was normalized to […] (HPRT). The PCR products were analyzed on 2% agarose gels. For the Aggrecan gene, the PCR bands were densitometrically quantified by using the BioCapt software (Vilber). Values were normalized to HPRT, and results were reported as relative gene expression.
hMSCs were cultured on with and without GFR-binding compounds as defined herein (SEQ ID NO: 23 and 24). […]

[6] = system: Human umbilical-vein endothelial cells; assay: Endothelialization, CD31 adherens junctions; format: cell-based; conditions: 36 hours of culture
Protocol: Human umbilical-vein endothelial cells were cultured with and without GFR-binding compounds as defined herein (SEQ ID NO: 26). An increase in the area of the adherent junctions (CD31) was observed after 36 hours of culture with GFR-binding compounds as defined herein (FIG. 10).

[7] = system: Human umbilical-vein endothelial cells; assay: Angiogenesis, tube-like structure formation; format: cell-based; conditions: 18 hours of culture
Protocol: Human umbilical-vein endothelial cells were cultured with and without GFR-binding compounds as defined herein (SEQ ID NO: 27).

[8] = system: Human epithelial cells; assay: Scratch test, collective cell migration; format: cell-based; conditions: 18 hours of culture
Protocol: Human epithelial cells were cultured with or without GFR-binding compounds as defined herein (SEQ ID NO: 28). A usual scratch test was applied (Nat Protoc 2: 329-333) on a monolayer of these epithelial cells in culture (FIG. 12a). An increase in the cell migration velocity for cells cultured with peptides was observed after 18 hours of culture. The cells migrated collectively and the communication between cells was maintained (FIG. 12b). In fact, the injury has been closed rapidly for the cells cultured with GFR-binding compounds as defined herein.

[9] = system: Neurons; assay: Neuron growth (dendrite growth, GAP43 Q-PCR); format: cell-based
Protocol: as §3
Neurons were cultured with and without GFR-binding compounds as defined herein (SEQ ID NO: 38). […] To further confirm this, the expression of the Growth Associated Protein 43 (GAP43) gene was verified for neuron cells cultured with neurogenic peptides (SEQ ID NO: 38).

Substance: SEQ ID NO: 9: inducing peptide, cyclic GFR-binding compound of the sequence listing; mixed with apatite ceramics; sequence not printed (WWFWGGGSAISTLYLIGKTPGGGGGG; also: cyclic, ring type and places not given here)
release of peptides over time [1]: no significant release of peptides was observed over time

Substance: SEQ ID NO: 10: inducing peptide, cyclic GFR-binding compound of the sequence listing; mixed with type-I collagen sponge; sequence not printed (GTPGPGGGSAISTLYLIGKTPGGGGGG; also: cyclic, closure not given here)
release of peptides over time [2]: no significant release of peptides was observed over time

ALP activity [3]: increase
Substance: SEQ ID NO: 19: osteogenic cyclic GFR-binding compound of the sequence listing; sequence not printed (WWFWGGGSAISTLYLDEYDKGGGGGG; also: cyclic, closure not given here)
differentiation into mature osteoblasts ([4]; 48 hours on coated apatite ceramics or type-I collagen sponge): differentiated into mature osteoblasts
production of extracellular matrix proteins such as Osteopontin (OPN) ([4]; versus native type-I collagen sponge or native apatite ceramics): produced extensive amounts of extracellular matrix proteins such as Osteopontin (OPN)

Substance: SEQ ID NO: 23: cyclic GFR-binding compound inducing cartilage regeneration; sequence not printed (VGRKPELEPLPIVYYVGRKPGGGGG; also: cyclic, ring type and places not given here)
expression of the Sox9 protein [5]: expression of the Sox9 protein was observed

Substance: SEQ ID NO: 24: cyclic GFR-binding compound inducing cartilage regeneration; sequence not printed (EPLPIVYYVGRTPKVGGGGGG; also: cyclic, ring type and places not given here)
expression of the Sox9 protein [5]: expression of the Sox9 protein was observed

Substance: SEQ ID NO: 26: cyclic GFR-binding compound inducing endothelialization; sequence not printed (RSVKVAKVRIKPHQGQHGGGGGG; also: cyclic, ring type and places not given here)
area of the adherent junctions (CD31) [6]: increase

Substance: SEQ ID NO: 27: vascular peptide, cyclic GFR-binding compound inducing angiogenesis; sequence not printed (SNITMQIMRIKPHQGGGGGG; also: cyclic, ring type and places not given here)
formation of tube-like structures [7]: formation of tube-like structures was observed

Substance: SEQ ID NO: 28: cyclic GFR-binding compound for wound healing; sequence not printed (EYVRKRPVQVRKIEYVRKGGGGGG; also: cyclic, ring type and places not given here)
cell migration velocity [8]: increase

Substance: SEQ ID NO: 38: neurogenic peptide, cyclic GFR-binding compound; sequence not printed (SPISILYIDAANNGGGGGG; also: cyclic, ring type and places not given here)
establishment of cell-cell contacts via dendrite growth ([9]; 6 hours of culture): rapid establishment of cell-cell contacts via dendrite growth
expression of the Growth Associated Protein 43 (GAP43) gene ([9]; 48 hours of culture, Q-PCR): high level of expression
